Data published in patent publication EP1110454A2, “5-Carboxanilido-haloalkylthiazoles as antimicrobial and marine antifouling agents” (ROHM AND HAAS COMPANY, priority 1999, dated 2001).

Key:
Format in all cases: cell-based
Escherichia coli = assay: Minimum Inhibitory Concentration (MIC) test, two fold serial dilutions; design: unit not given here; conditions: Minimal Salts Media (M9G)
Protocol: (§1) The spectrum of antimicrobial activity of the antimicrobial agents useful in the present invention were determined in Minimum Inhibitory Concentration (MIC) tests. MICs were determined by two fold serial dilutions of a compound in Minimal Salts Media (M9G), Trypticase Soy Broth (TSB) or Tryticase Soy Broth and anionic surfactant (TSBA). The compounds were tested against Aspergillus niger, Rhodotorula rubra, Escherichia coli and Pseudomonas aeruginosa. Results of the MIC tests are shown below.

Rhodotorula rubra = assay: as above; design: R. Rubra M9G: unit not given here; conditions: for R. Rubra M9G: Minimal Salts Media (M9G)
Protocol: as §1

Aspergillus niger = assay: as above; conditions: Trypticase Soy Broth (TSB)
Protocol: as §1

[1] = system: Aspergillus niger, Rhodotorula rubra, Escherichia coli and Pseudomonas aeruginosa; assay: MIC tests, overall spectrum of antimicrobial activity; conditions: verbal summary of the MIC results of Table 1
Protocol: as §1

Structure (SMILES) | E.Coli M9G (Escherichia coli) | R. Rubra M9G (Rhodotorula rubra) | A. niger TSB (Aspergillus niger) | microbicidal activity [1] | R. Rubra TSB (Rhodotorula rubra; Trypticase Soy Broth (TSB))
Cc1nc(C(F)(F)F)c(C(=O)Nc2c(Cl)cc(OC(F)(F)F)cc2Cl)s1 [Compound 33] | 300 | 300 |  |  | 
O=C(Nc1c(Br)cc(Br)cc1Br)c1sc(C(F)(F)F)nc1C(F)(F)F [Compound 26] | >300 | 300 |  |  | 
Cc1nc(C(F)F)c(C(=O)Nc2c(Br)cc(OC(F)(F)F)cc2Br)s1 [Compound 35] | 300 | 300 |  |  | 
O=C(Nc1ccc(F)c(F)c1)c1sc(C(Cl)(Cl)Cl)nc1C(F)(F)F [Compound 43] | >300 | 30 | >30 | surprisingly effective at controlling microorganisms | 30
O=C(Nc1c(Br)cc(OC(F)(F)F)cc1Br)c1sc(C(F)(F)F)nc1C(F)(F)F [Compound 29] | >300 | 300 |  |  | 
Cc1nc(C(F)F)c(C(=O)Nc2c(Br)cc(Br)cc2Br)s1 [Compound 34] | 300 | 300 |  |  | 
